Assay results from patent publication US12180187B2, “1-phenyl-5-azinylpyrazolyl-3-oxyalkyl acids and their use for controlling unwanted plant growth” (BAYER AKTIENGESELLSCHAFT, priority 2019, dated 2024).

Experiments:
STEME [1] = assay: Pre-emergence action against STEME, 1280 g/ha; assay type: in vivo, Stellaria media; conditions: scored visually after about 3 weeks vs untreated controls (100% = plants have died)
How it was run: (§1)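 Mono- and dicot weed seeds sown in sandy loam were treated on the covering soil surface with WP or EC formulations plus 0.5% additive at 600 L water/ha. Pots stayed in a greenhouse; damage was scored visually after ~3 weeks as percent versus untreated controls (100% = dead).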

DIGSA [2] = assay: Pre-emergence action against DIGSA, 1280 g/ha; assay type: in vivo, Digitaria sanguinalis; conditions: visual scoring after about 3 weeks vs untreated controls, 100% = plants have died, 0% = like control plants
How it was run: as §1

ECHCG [3] = assay: Pre-emergence action against ECHCG, 1280 g/ha; assay type: in vivo, Echinochloa crus-galli; conditions: visual scoring after about 3 weeks vs untreated controls, 100% = plants have died, 0% = like control plants
How it was run: as §1

ECHCG [4] = assay: Post-emergence action against ECHCG, 1.28 kg/ha; assay type: in vivo, Echinochloa crus-galli; conditions: dosage 1280 g/ha, visual rating about 3 weeks after treatment vs untreated controls
How it was run: (§2)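 Visual rating against untreated plants about 3 weeks after spraying gives % activity, where 0% means like controls and 100% means plants died. Plants were treated post-emergence at the one-leaf stage with compound formulated as wettable powder or emulsion concentrate, applied at 600 L water/ha plus 0.5% additive.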

ABUTH [5] = assay: Post-emergence action against ABUTH, 1.28 kg/ha; assay type: in vivo, Abutilon theophrasti; conditions: dosage 1280 g/ha, visual rating about 3 weeks after treatment vs untreated controls (100% = plants died)
How it was run: as §2

SETVI [6] = assay: Post-emergence action against SETVI, 1.28 kg/ha; assay type: in vivo, Setaria viridis; conditions: dosage 1280 g/ha, visual rating about 3 weeks after treatment vs untreated controls
How it was run: as §2

DIGSA [7] = assay: Post-emergence action against DIGSA, 1.28 kg/ha; assay type: in vivo, Digitaria sanguinalis; conditions: dosage 1280 g/ha, visual rating about 3 weeks after treatment vs untreated controls
How it was run: as §2

ALOMY [8] = assay: Post-emergence action against ALOMY, 1.28 kg/ha; assay type: in vivo, Alopecurus myosuroides; conditions: dosage 1280 g/ha, visual rating about 3 weeks after treatment vs untreated controls
How it was run: as §2

VERPE [9] = assay: Post-emergence action against VERPE, 1.28 kg/ha; assay type: in vivo, Veronica persica; conditions: dosage 1280 g/ha, visual rating about 3 weeks after treatment vs untreated controls (100% = plants died)
How it was run: as §2

KCHSC [10] = assay: Post-emergence action against KCHSC, 1.28 kg/ha; assay type: in vivo, Bassia scoparia; conditions: dosage 1280 g/ha, visual rating about 3 weeks after treatment vs untreated controls (100% = plants died)
How it was run: as §2

SETVI [11] = assay: Pre-emergence action against SETVI, 1280 g/ha; assay type: in vivo, Setaria viridis; conditions: visual scoring after about 3 weeks vs untreated controls, 100% = plants have died, 0% = like control plants
How it was run: as §1

MATIN [12] = assay: Post-emergence action against MATIN, 1.28 kg/ha; assay type: in vivo, Tripleurospermum inodorum (Matricaria inodora); conditions: dosage 1280 g/ha, visual rating about 3 weeks after treatment vs untreated controls (100% = plants died)
How it was run: as §2

POAAN [13] = assay: Pre-emergence action against POAAN, 1280 g/ha; assay type: in vivo, Poa annua; conditions: visual scoring after about 3 weeks vs untreated controls, 100% = plants have died, 0% = like control plants
How it was run: as §1

LOLRI [14] = assay: Post-emergence action against LOLRI, 1.28 kg/ha; assay type: in vivo, Lolium rigidum; conditions: dosage 1280 g/ha, visual rating about 3 weeks after treatment vs untreated controls
How it was run: as §2

AMARE [15] = assay: Post-emergence action against AMARE, 1.28 kg/ha; assay type: in vivo, Amaranthus retroflexus; conditions: dosage 1280 g/ha, visual rating about 3 weeks after treatment vs untreated controls (100% = plants died)
How it was run: as §2

LOLRI [16] = assay: Pre-emergence action against LOLRI, 1280 g/ha; assay type: in vivo, Lolium rigidum; conditions: visual scoring after about 3 weeks vs untreated controls, 100% = plants have died, 0% = like control plants
How it was run: as §1

AMARE [17] = assay: Pre-emergence action against AMARE, 1280 g/ha; assay type: in vivo, Amaranthus retroflexus; conditions: scored visually after about 3 weeks vs untreated controls (100% = plants have died)
How it was run: as §1

MATIN [18] = assay: Pre-emergence action against MATIN, 1280 g/ha; assay type: in vivo, Tripleurospermum inodorum (Matricaria inodora); conditions: scored visually after about 3 weeks vs untreated controls (100% = plants have died)
How it was run: as §1

POAAN [19] = assay: Post-emergence action against POAAN, 1.28 kg/ha; assay type: in vivo, Poa annua; conditions: dosage 1280 g/ha, visual rating about 3 weeks after treatment vs untreated controls
How it was run: as §2

STEME [20] = assay: Post-emergence action against STEME, 1.28 kg/ha; assay type: in vivo, Stellaria media; conditions: dosage 1280 g/ha, visual rating about 3 weeks after treatment vs untreated controls (100% = plants died)
How it was run: as §2

ALOMY [21] = assay: Pre-emergence action against ALOMY, 1280 g/ha; assay type: in vivo, Alopecurus myosuroides; conditions: visual scoring after about 3 weeks vs untreated controls, 100% = plants have died, 0% = like control plants
How it was run: as §1

VERPE [22] = assay: Pre-emergence action against VERPE, 1280 g/ha; assay type: in vivo, Veronica persica; conditions: scored visually after about 3 weeks vs untreated controls (100% = plants have died)
How it was run: as §1

KCHSC [23] = assay: Pre-emergence action against KCHSC, 1280 g/ha; assay type: in vivo, Bassia scoparia; conditions: scored visually after about 3 weeks vs untreated controls (100% = plants have died)
How it was run: as §1

ABUTH [24] = assay: Pre-emergence action against ABUTH, 1280 g/ha; assay type: in vivo, Abutilon theophrasti; conditions: scored visually after about 3 weeks vs untreated controls (100% = plants have died)
Excerpt: 1. Pre-Emergence Herbicidal Effect and Crop Plant Compatibility a) Seeds of mono- and dicotyledonous weed plants are placed in plastic pots in sandy loam soil (doubly sown with one species each of mono- or dicotyledonous weed plants per pot) and covered with soil. The compounds of the invention, formulated in the form of wettable powders (WP) or as emulsion concentrates (EC), are then applied onto the surface of the covering soil as aqueous suspension or emulsion with addition of 0.5% additive at a water application rate equivalent to 600 litres per hectare. After the treatment, the pots are placed in a greenhouse and kept under good growth conditions for the trial plants. After about 3 weeks, the effect of the preparations is scored visually in comparison with untreated controls as percentages. For example, 100% activity=the plants have died, 0% activity=like control plants. 1. Pre-Emergence Effectiveness Tables 1 to 12 below show the effects of selected compounds of the general formula (I) according to Tables 1 and 2 on various harmful plants and at an application rate corresponding to 1280 g/ha, which were obtained by the experimental procedure mentioned above.

Structure (SMILES) | Pre-emergence action against STEME (STEME [1]) [%] | Pre-emergence action against DIGSA (DIGSA [2]) [%] | Pre-emergence action against ECHCG (ECHCG [3]) [%] | Post-emergence action against ECHCG (ECHCG [4]) [%] | Post-emergence action against VERPE (VERPE [9]) [%] | Pre-emergence action against SETVI (SETVI [11]) [%] | Pre-emergence action against POAAN (POAAN [13]) [%] | Pre-emergence action against AMARE (AMARE [17]) [%] | Pre-emergence action against MATIN (MATIN [18]) [%] | Post-emergence action against POAAN (POAAN [19]) [%] | Pre-emergence action against ALOMY (ALOMY [21]) [%] | Pre-emergence action against VERPE (VERPE [22]) [%] | other results
CCOC(=O)COc1nn(-c2ccc(F)cc2F)c(-c2ccc(F)nc2)c1Br [VII-101] | 100 | 100 | 90 | 100 | 100 | 100 | 100 | 100 | 100 | 100 | 100 | 100 | Post-emergence action against ABUTH (ABUTH [5]): 90%; Post-emergence action against SETVI (SETVI [6]): 100%; Post-emergence action against DIGSA (DIGSA [7]): 100%; Post-emergence action against ALOMY (ALOMY [8]): 100%; Post-emergence action against KCHSC (KCHSC [10]): 90%; Post-emergence action against MATIN (MATIN [12]): 100%; Post-emergence action against LOLRI (LOLRI [14]): 100%; Post-emergence action against AMARE (AMARE [15]): 90%; Pre-emergence action against LOLRI (LOLRI [16]): 100%; Post-emergence action against STEME (STEME [20]): 100%; Pre-emergence action against KCHSC (KCHSC [23]): 100%
CN(C)C(=O)COc1nn(-c2ccccc2F)c(-c2ccc(F)nc2)c1Br [Example X-027] | 90 | 100 | 100 | 90 | 100 | 100 | 100 | 100 | 90 | 100 | 100 | 100 | Pre-emergence action against ABUTH (ABUTH [24]): 90%
